# Results reported in US10000765B2, “Gene encoding cytochrome P450, and use thereof” (NATIONAL INSTITUTE OF AGROBIOLOGICAL SCIENCES, priority 2011, dated 2018).
# What was measured:
# [1] = tested on: Arabidopsis thaliana (K31-4-2) transformed with a Kasalath-derived CYP72A31 gene; assay: Drug sensitivity test on drug-containing MS medium, Arabidopsis thaliana transformed with Kasalath-derived CYP72A31 gene; type: in vivo; conditions: for Rate of emerging of true leaf (%): day 14 after seeding
# Procedure: (§1) A bag of mixed salts for Murashige-Skoog (MS) medium (manufactured by Wako Pure Chemical Industries, Ltd.) 20 g of sucrose, 3 mg of thiamin hydrochloride, 5 mg of nicotinic acid, and 0.5 mg of pyridoxine hydrochloride were dissolved in distilled water, and filled up to 1 L with distilled water. After pH adjustment to 5.8 to 6.3 with 1 M KOH, 3 g of Gelrite was added to the solution, and dissolved using a microwave. After that, the mixture was autoclaved to prepare a sterile MS medium. A test drug was added to this sterile MS medium so as to make a final concentration of 1.3, 4.1, 12, 37, 110, or 330 nM. Arabidopsis thaliana from a sterilized seed was seeded in the drug-containing MS medium, and cultivated at 22° C. for 12 to 14 days in a continuous light period.
# (§2) Note that the drugs used in this Example were bispyribac-sodium, pyrithiobac-sodium, pyriminobac, bensulfuron-methyl, penoxsulam, pyrazosulfuron-ethyl, amidosulfuron, imazosulfuron, nicosulfuron, and propyrisulfuron.
# [2] = tested on: non-transformed Arabidopsis thaliana (NT); assay: Drug sensitivity test on drug-containing MS medium, non-transformed Arabidopsis thaliana; type: in vivo
# Procedure: as §1, §2
# [3] = tested on: CYP72A31-overexpressing rice (K31-4-6-2); assay: Drug sensitivity test on gellan gum medium, CYP72A31-overexpressing rice; type: in vivo, Oryza sativa; conditions: for CK ratio (%): plant height compared with drug-free medium
# Procedure: (§3) Next, 1.6 g of Hoagland's mix (Sigma-Aldrich Corporation) and 3 g of Gelrite (Wako Pure Chemical Industries, Ltd.) were suspended in 1 L of distilled water. Then, the mixture was dissolved and heated in a microwave. After that, the mixture was cooled to 50 to 60 degree C., and BS was added at a final concentration of 1 μM. This mixture was dispensed into 30-mL tubular bottles at 15 mL to prepare a gellan gum medium. Next, CSSL rice paddies were soaked in 0.5% sodium hypochlorite for about 20 minutes, and were then washed well with water. These paddies were soaked in distilled water, and kept at 27 degree C. for 3 to 5 days for germination. Germinating seeds were softly planted in sprout-side up on the gellan gum medium. These samples, together with a beaker filled with distilled water, were placed in a transparent case, which was then covered with a clear-plastic wrap. These samples were grown at 27 degree C. under fluorescent light illumination (14 hours of a light period and 10 hours of a dark period) for 7 to 9 days.
# (§4) According to the method of Example 1, a gellan gum medium containing a test drug at a concentration of 0.01, 0.1, 1, or 10 μM was prepared. Rice seeds were sterilized, germinated, seeded in the medium, and cultivated.
# [4] = tested on: Wild-type rice (Nipponbare); assay: Drug sensitivity test on gellan gum medium, wild-type rice; type: in vivo, Oryza sativa; conditions: plant height compared with drug-free medium
# Procedure: as §3, §4
# [5] = K31-4-2, Tables 2 and 3, FIGS. 20 to 24
# [6] = maximum drug concentration for 80% or more emerging of true leaves, K31-4-2 / NT, day 14
# [7] = drug 1.3 nM, day 14 after seeding
# [8] = drug 4.1 nM, day 14 after seeding
# [9] = drug 12 nM, day 14 after seeding
# [10] = drug 37 nM, day 14 after seeding
# [11] = drug 110 nM, day 14 after seeding
# [12] = drug 330 nM, day 14 after seeding
Structure (SMILES),"Resistance of transformed Arabidopsis thaliana to the drug [1, 5]","Rate of emerging of true leaf (%) ([1]; K31-4-2, drug 1.3 nM)","Rate of emerging of true leaf (%) ([1]; K31-4-2, drug 4.1 nM)","Rate of emerging of true leaf (%) ([1]; K31-4-2, drug 12 nM)","Rate of emerging of true leaf (%) ([1]; K31-4-2, drug 37 nM)","Rate of emerging of true leaf (%) ([1]; K31-4-2, drug 110 nM)","Rate of emerging of true leaf (%) ([1]; K31-4-2, drug 330 nM)","Ratio of sensitivity [1, 6]","Rate of emerging of true leaf (%) [2, 7]","Rate of emerging of true leaf (%) [2, 8]","Rate of emerging of true leaf (%) [2, 9]","Rate of emerging of true leaf (%) [2, 10]","Rate of emerging of true leaf (%) [2, 11]","Rate of emerging of true leaf (%) [2, 12]",Ratio of sensitivity ([1]; in vivo),Resistance of transformed Arabidopsis thaliana to the drug ([1]; in vivo),further results
"CCOC(=O)c1cnn(C)c1S(=O)(=O)NC(=O)Nc1nc(OC)cc(OC)n1 [Pyrazosulfuron-ethyl, pyrazosulfuron-ethyl]",exhibited resistance,100%,100%,90%,0%,0%,0%,>9,0%,0%,0%,0%,0%,0%,,,
"CON=C(C)c1cccc(Oc2nc(OC)cc(OC)n2)c1C(=O)O [Pyriminobac, pyriminobac]",exhibited resistance,100%,100%,100%,100%,100%,50%,27,100%,90%,10%,0%,0%,0%,,,
"CCCc1ccc2nc(Cl)c(S(=O)(=O)NC(=O)Nc3nc(OC)cc(OC)n3)n2n1 [Propyrisulfuron, propyrisulfuron]",exhibited resistance,100%,100%,100%,70%,0%,0%,>9,10%,0%,0%,0%,0%,0%,,,
"COC(=O)c1ccccc1CS(=O)(=O)NC(=O)Nc1nc(OC)cc(OC)n1 [Bensulfuron-methyl, bensulfuron-methyl]",,,,,,,,,30%,0%,0%,0%,0%,0%,>28,exhibited resistance,
"COc1cc(OC)nc(Sc2cccc(Cl)c2C(=O)O)n1 [Pyrithiobac-sodium, pyrithiobac-sodium]",,,,,,,,,,,,,,,3,exhibited resistance,"Rate of emerging of true leaf (%) ([2]; drug 1.3 nM, day 12 after seeding): 44%; Rate of emerging of true leaf (%) ([2]; drug 4.1 nM, day 12 after seeding): 44%; Rate of emerging of true leaf (%) ([2]; drug 12 nM, day 12 after seeding): 0%; Rate of emerging of true leaf (%) ([2]; drug 37 nM, day 12 after seeding): 0%; Rate of emerging of true leaf (%) ([2]; drug 110 nM, day 12 after seeding): 0%; Rate of emerging of true leaf (%) ([2]; drug 330 nM, day 12 after seeding): 0%"
"COc1cc(OC)nc(NC(=O)NS(=O)(=O)c2ncccc2C(=O)N(C)C)n1 [Nicosulfuron, nicosulfuron]",exhibited resistance,100%,100%,100%,100%,100%,10%,27,100%,100%,0%,0%,0%,0%,,,
"CCc1cc(C)cc(CC)c1-c1c(OC(=O)C(C)(C)C)n2n(c1=O)CCOCC2 [Pinoxaden, pinoxaden]",,,,,,,,,,,,,,,,,"Resistance of transformed rice to the drug ([3]; Table 4 and FIG. 25): exhibited resistance; Ratio of sensitivity ([3]; maximum drug concentration for CK ratio of 40% or more, K31-4-6-2 / wild-type rice): 10; CK ratio (%) ([3]; K31-4-6-2, drug 0.01 μM): 95%; CK ratio (%) ([3]; K31-4-6-2, drug 0.1 μM): 48%; CK ratio (%) ([3]; K31-4-6-2, drug 1 μM): 9%; CK ratio (%) ([3]; K31-4-6-2, drug 10 μM): 3%; CK ratio (%) ([4]; drug 0.01 μM): 59%; CK ratio (%) ([4]; drug 0.1 μM): 3%; CK ratio (%) ([4]; drug 1 μM): 3%; CK ratio (%) ([4]; drug 10 μM): 3%"
"COc1cnc(OC)n2nc(NS(=O)(=O)c3c(OCC(F)F)cccc3C(F)(F)F)nc12 [Penoxsulam, penoxsulam]",,,,,,,,,50%,10%,0%,0%,0%,0%,>254,exhibited resistance,
"COc1cc(OC)nc(NC(=O)NS(=O)(=O)c2c(Cl)nc3ccccn23)n1 [Imazosulfuron, imazosulfuron]",exhibited resistance,100%,100%,100%,100%,90%,0%,>85,40%,10%,0%,0%,0%,0%,,,
"COc1cc(OC)nc(NC(=O)NS(=O)(=O)N(C)S(C)(=O)=O)n1 [Amidosulfuron, amidosulfuron]",,,,,,,,,100%,100%,0%,0%,0%,0%,3,exhibited resistance,
